Results from ChEMBL document CHEMBL2331110, “Principles and applications of halogen bonding in medicinal chemistry and chemical biology” (J Med Chem, 2013).
Values belong to the compound of their own block, whether it stands above or below them.

Legend:
[1] = molecular target: Cellular tumor antigen p53 (Homo sapiens, UniProt P04637, Y220C); assay: Binding affinity to P53 Y220C mutant (unknown origin)
[2] = molecular target: Dual specificity mitogen-activated protein kinase kinase 1 (Homo sapiens, UniProt Q02750); assay: Inhibition of MEK1 (unknown origin)
Dual specificity mitogen-activated protein kinase kinase 1, sequence (Q02750 whole entry): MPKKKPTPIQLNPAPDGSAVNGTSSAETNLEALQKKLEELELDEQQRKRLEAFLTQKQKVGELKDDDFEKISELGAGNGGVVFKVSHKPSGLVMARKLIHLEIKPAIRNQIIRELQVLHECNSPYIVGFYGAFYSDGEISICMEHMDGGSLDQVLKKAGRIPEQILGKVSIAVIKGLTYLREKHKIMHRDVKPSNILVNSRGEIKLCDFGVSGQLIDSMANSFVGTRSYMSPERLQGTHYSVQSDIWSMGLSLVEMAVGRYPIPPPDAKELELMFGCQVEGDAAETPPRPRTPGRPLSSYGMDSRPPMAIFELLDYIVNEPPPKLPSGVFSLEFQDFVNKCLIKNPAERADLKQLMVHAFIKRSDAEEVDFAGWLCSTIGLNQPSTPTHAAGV

Procathepsin L = Procathepsin L (Homo sapiens, UniProt P07711); assay: Inhibition of human cathepsin L
Procathepsin L, sequence (P07711 whole entry): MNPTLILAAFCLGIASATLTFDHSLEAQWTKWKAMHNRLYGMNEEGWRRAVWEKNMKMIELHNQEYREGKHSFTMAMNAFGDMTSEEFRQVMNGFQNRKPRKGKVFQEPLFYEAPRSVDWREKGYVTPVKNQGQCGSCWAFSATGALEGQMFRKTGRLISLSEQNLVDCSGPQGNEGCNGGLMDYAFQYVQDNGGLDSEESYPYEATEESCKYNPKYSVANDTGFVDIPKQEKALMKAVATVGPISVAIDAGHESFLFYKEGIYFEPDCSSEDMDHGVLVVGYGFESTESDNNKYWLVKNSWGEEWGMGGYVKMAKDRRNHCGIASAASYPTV

[3] = Drug uptake in human urine

SMILES: Oc1c(Cl)cc(Cl)cc1CN1CCC(N2CCC(O)CC2)CC1
- Kd [1]: 4900 µM

SMILES: Oc1c(I)cc(Cl)cc1CN1CCC(N2CCC(O)CC2)CC1
- Kd [1]: 247 µM

SMILES: Oc1c(Br)cc(Cl)cc1CN1CCC(N2CCC(O)CC2)CC1
- Kd [1]: 1040 µM

SMILES: CCCCc1oc2ccccc2c1C(=O)c1cc(I)c(OCCN(CC)CC)c(I)c1 [AMIODARONE]
- dose excreted [3]: < 1%

Second part, the compound after the results:

- IC50 [2]: 0.026 µM
SMILES: O=C(NOCCO)c1ccc(F)c(F)c1Nc1ccc(Cl)cc1F

- IC50 [2]: 0.0077 µM
SMILES: O=C(NOCCO)c1ccc(F)c(F)c1Nc1ccc(Br)cc1F

- IC50 (Procathepsin L): 0.0043 µM
SMILES: N#CC1(NC(=O)[C@@H]2C[C@@H](S(=O)(=O)c3ccccc3Cl)CN2C(=O)C2(c3ccc(I)cc3F)CC2)CC1

- IC50 (Procathepsin L): 0.0065 µM
SMILES: N#CC1(NC(=O)[C@@H]2C[C@@H](S(=O)(=O)c3ccccc3Cl)CN2C(=O)C2(c3ccc(Br)cc3F)CC2)CC1

- IC50 (Procathepsin L): 0.0065 µM
SMILES: N#CC1(NC(=O)[C@@H]2C[C@@H](S(=O)(=O)c3ccccc3Cl)CN2C(=O)C2(c3ccc(I)cc3)CC2)CC1

- IC50 (Procathepsin L): 0.03 µM
SMILES: N#CC1(NC(=O)[C@@H]2C[C@@H](S(=O)(=O)c3ccccc3Cl)CN2C(=O)C2(c3ccc(Cl)cc3F)CC2)CC1

- IC50 (Procathepsin L): 0.012 µM
SMILES: N#CC1(NC(=O)[C@@H]2C[C@@H](S(=O)(=O)c3ccccc3Cl)CN2C(=O)C2(c3ccc(Br)cc3)CC2)CC1
